Experimental data as given in patent US6255089A (priority 1998, dated 2001).
Read-outs that look alike come from different tables or passages of the source.

Legend:
native 5-HT2A receptor [1] = target: T1, native 5-HT2A receptor (Rattus norvegicus, UniProt P14842); format: cell-based; details: 10 μM 5-HT
T1 construct: expressed in transfected cells; host or cells: COS-7

[2] = target: T2, cys→lys mutant 5-HT2A receptor (Rattus norvegicus, UniProt P14842, C322K); format: binding; parameters: expressed in transfected cells; host or cells: COS-7; details: for change in binding affinity at the mutant 5-HT2A receptor: cys→lys mutant versus native, 3H-ketanserin
Procedure: Saturation experiments were performed by using [^3 H]ketanserin (0.1-5.0 nM).

native 5-HT2A receptor [3] = target: T1, native 5-HT2A receptor; format: binding; details: 3H-ketanserin saturation
Procedure: (§1) Bmax values were determined by a BCA assay.
(§2) BMAX values were determined by a BCA assay.

[4] = target: T2, cys→lys mutant 5-HT2A receptor; details: saturation analysis
Procedure: as §1, §2

5-HT2C receptor = format: binding, rat; details: COS-7; native versus ser→lys and ser→phe mutant
[5] = tested on: 5-HT2A cys→lys mutant receptor; details: inverse agonism; for reduction of constitutively activated IP basal activity: mutated 5-HT2A cys→lys receptor
[6] = tested on: basal levels of IP production; format: cell-based, rat; details: COS-7, no agonist

T2 sequence (P14842 whole entry C322K): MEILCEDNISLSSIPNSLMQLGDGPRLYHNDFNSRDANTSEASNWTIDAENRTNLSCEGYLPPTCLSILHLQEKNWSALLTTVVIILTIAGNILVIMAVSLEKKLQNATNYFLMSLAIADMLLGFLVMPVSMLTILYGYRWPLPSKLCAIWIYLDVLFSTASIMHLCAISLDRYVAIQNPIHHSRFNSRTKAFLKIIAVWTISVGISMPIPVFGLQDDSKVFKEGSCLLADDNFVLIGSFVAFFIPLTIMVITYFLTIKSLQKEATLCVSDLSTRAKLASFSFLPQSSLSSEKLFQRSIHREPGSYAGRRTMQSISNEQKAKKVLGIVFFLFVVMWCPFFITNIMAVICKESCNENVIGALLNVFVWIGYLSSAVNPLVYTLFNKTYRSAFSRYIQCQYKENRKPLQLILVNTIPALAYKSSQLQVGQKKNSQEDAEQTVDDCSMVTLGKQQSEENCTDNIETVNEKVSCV
T1 sequence (P14842 whole entry): as the sequence (P14842 whole entry C322K) above, with K322C counted along it

How did the “additional increase in IP production upon addition of 5-HT” value (native 5-HT2A receptor [1]) turn out when `NCCc1c[nH]c2ccc(O)cc12` [5-HT, serotonin] was run?
Its value is “additional increase in IP production”.

Which “fold increase in affinity (Ki)” value ([2]; rat, cos-7 cells) does the source give for `COc1cc(CC(C)N)c(OC)cc1Br` (stereo not shown) [DOB] here?
Its value is 7.4 fold.

With `COc1cc(CC(C)N)c(OC)cc1C` (stereo not shown) [DOM] as the molecule, how does the “fold increase in affinity (Ki)” value ([2]; cys→lys mutant versus native 5-HT2A receptor) read?
The value was 5 fold.

With `O=C(c1ccc(F)cc1)C1CCN(CCn2c(=O)[nH]c3ccccc3c2=O)CC1` [^3 H-ketanserin] as the molecule, how does the BMAX (native 5-HT2A receptor [3]) read?
Its BMAX is 193 ± 37 fmol/mg.

And the “KD of 3H-ketanserin, native versus mutant” value [4]?
The value was “did not differ between the native and mutant receptors”.

How did the “5-HT2C receptor density (3H-mesulergine saturation)” value (5-HT2C receptor) turn out when `CN1C[C@@H](NS(=O)(=O)N(C)C)C[C@@H]2c3cccc4c3c(cn4C)C[C@H]21` [^3 H-mesulergine] was run?
The value was “greater in cells transfected with native receptors than in cells transfected with either the ser→lys or the ser→phe mutant receptors”.

For `O=C(c1ccc(F)cc1)C1CCN(CCn2c(=O)[nH]c3ccccc3c2=O)CC1` [ketanserin], which “decrease of the constitutive IP stimulation” value ([5]; COS-7, 5-HT2A cys→lys receptor) is on record?
Its value is 80%.

And the “change in binding affinity at the mutant 5-HT2A receptor” value (from here on “change in binding affinity”) [2]?
The value was “no change in binding affinity”.

Which “reduction of constitutively activated IP basal activity” value [5] does the source give for `CN1CCN(C2=Nc3ccccc3Oc3ccc(Cl)cc32)CC1` [loxapine] here?
The value was “reduce the constitutively activated IP basal activity”.

With `CN1CCN2c3ccccc3Cc3ccccc3C2C1` (stereo not shown) [mianserin] as the molecule, how does the “change in binding affinity” value [2] read?
The value was “apparent decease in the binding affinity”.

`O=C(CCCN1CCC2(CC1)C(=O)NCN2c1ccccc1)c1ccc(F)cc1` [spiperone] was tested. Which “reduction of constitutively activated IP basal activity” value [5] did it give?
The value was “reduce the constitutively activated IP basal activity”.

And the “change in binding affinity” value [2]?
The value was “no change in binding affinity”.

B1: ser→phe mutant 5-HT2C receptors: rat 5-HT2C receptor with serine #312 mutated to phenylalanine (protein, UniProt P08909 33-460, looked up, variant S312F)
5-hydroxytryptamine receptor …: IVTDTFNSSDGGRLFQFPDGVQNWPALSIVVIIIMTIGGNILVIMAVSMEKKLHNATNYFLMSLAIADMLVGLLVMPLSLLAILYDYVWPLPRYLCPVWISLDVLFSTASIMHLCAISLDRYVAIRNPIEHSRFNSRTKAIMKIAIVWAISIGVSVPIPVIGLRDESKVFVNNTTCVLNDPNFVLIGSFVAFFIPLTIMVITYFLTIYVLRRQTLMLLRGHTEEELANMSLNFLNCCCKKNGGEEENAPNPNPDQKPRRKKKEKRPRGTMQAINNEKKAFKVLGIVFFVFLIMWCPFFITNILSVLCGKACNQKLMEKLLNVFVWIGYVCSGINPLVYTLFNKIYRRAFSKYLRCDYKPDKKPPVRQIPRVAATALSGRELNVNIYRHTNERVARKANDPEPGIEMQVENLELPVNPSNVVSERISSV
With B1 as the molecule, how does the “fold increase in basal levels of IP production compared with cells expressing native 5-HT2C receptors” value [6] read?
Its value is 2 fold.
